From patent publication US20230085307A1, “PYRIDAZINONE COMPOUND AND HERBICIDE” (NISSAN CHEMICAL CORPORATION, priority 2019, published 2023)

Columns and labels:
[1] = tested on: Japanese bulrush; assay: Test Example 1: herbicidal activity, application before weed generation under submerged conditions (Table 16, symbol B); assay type: in vivo, Japanese bulrush (Schoenoplectus juncoides)
Summary of the method: (§1)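 Submerged Wagner pots (alluvial soil, 4 cm water) sown with weed seeds and planted with 2.5-leaf rice seedlings; emulsifiable concentrate diluted in water applied to water surface on sowing day. Held in greenhouse at 25-30 °C; injury scored 0-5 by herbicidal rate after three weeks.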

[2] = tested on: green foxtail; assay: Test Example 5: herbicidal effect by foliage application, plastic box (Table 20, symbol G); assay type: in vivo, green foxtail (Setaria viridis); settings: foliage application, AAH 320 g/ha, evaluated three weeks after application
Summary of the method: (§2)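 Plants sown in sterilized diluvial soil and grown 14 days in a greenhouse at 25° C to 30° C, then sprayed on the foliage with the compound's emulsion diluted in water to a predetermined herbicide amount. Injury to weeds and crops scored three weeks after application on a visual rating scale.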

[3] = tested on: southern crabgrass; assay: Test Example 5: herbicidal effect by foliage application, plastic box (Table 20, symbol F); assay type: in vivo, southern crabgrass (Digitaria ciliaris); settings: foliage application, AAH 320 g/ha, evaluated three weeks after application
Summary of the method: as §2

[4] = tested on: lambsquarters; assay: Test Example 5: herbicidal effect by foliage application, plastic box (Table 20, symbol O); assay type: in vivo, lambsquarters (Chenopodium album); settings: foliage application, AAH 320 g/ha, evaluated three weeks after application
Summary of the method: as §2

[5] = tested on: velvetleaf; assay: Test Example 4: herbicidal effect by soil treatment (Table 19, symbol M); assay type: in vivo, velvetleaf (Abutilon theophrasti); settings: amount of applied herbicide 320 g/ha
Summary of the method: (§3)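 Seeds were sown in sterilized diluvial soil and covered with about 1.5 cm of soil. An emulsion formulation diluted with water to a predetermined herbicide amount was sprayed evenly onto the soil surface. Plants grew in a greenhouse at 25° C. to 30° C., and the effect was scored three weeks after application using criteria from an earlier test.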

[6] = tested on: green foxtail; assay: Test Example 4: herbicidal effect by soil treatment (Table 19, symbol G); assay type: in vivo, green foxtail (Setaria viridis); settings: amount of applied herbicide 320 g/ha
Summary of the method: as §3

[7] = tested on: oval-leafed pondweed; assay: Test Example 1: herbicidal activity, application before weed generation under submerged conditions (Table 16, symbol C); assay type: in vivo, oval-leafed pondweed (Monochoria vaginalis)
Summary of the method: as §1

[8] = tested on: windgrass; assay: Test Example 5: herbicidal effect by foliage application, plastic box (Table 20, symbol L); assay type: in vivo, windgrass (Apera spica-venti); settings: foliage application, AAH 320 g/ha, evaluated three weeks after application
Summary of the method: as §2

[9] = tested on: barnyard grass; assay: Test Example 3: herbicidal effect by foliage application, Wagner pot (Table 18, symbol H); assay type: in vivo, barnyard grass (Echinochloa crus-galli); settings: amount of applied herbicide 320 g/ha
Summary of the method: (§4)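 Plants were sown in alluvial soil held under 0.1–0.5 cm standing water and grown 14 days in a greenhouse at 25–30 °C. An emulsifiable formulation, water-diluted to the set dose, was then sprayed onto the foliage, and effects were scored three weeks later using previously defined criteria.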

[10] = tested on: persian speedwell; assay: Test Example 5: herbicidal effect by foliage application, plastic box (Table 20, symbol R); assay type: in vivo, Persian speedwell (Veronica persica); settings: foliage application, AAH 320 g/ha, evaluated three weeks after application
Summary of the method: as §2

[11] = tested on: southern crabgrass; assay: Test Example 4: herbicidal effect by soil treatment (Table 19, symbol F); assay type: in vivo, southern crabgrass (Digitaria ciliaris); settings: amount of applied herbicide 320 g/ha
Summary of the method: as §3

[12] = tested on: blackgrass; assay: Test Example 5: herbicidal effect by foliage application, plastic box (Table 20, symbol J); assay type: in vivo, blackgrass (Alopecurus myosuroides); settings: foliage application, AAH 320 g/ha, evaluated three weeks after application
Summary of the method: as §2

[13] = tested on: Chinese sprangletop; assay: Test Example 3: herbicidal effect by foliage application, Wagner pot (Table 18, symbol D); assay type: in vivo, chinese sprangletop (Leptochloa chinensis); settings: amount of applied herbicide 320 g/ha
Summary of the method: as §4

[14] = tested on: Italian ryegrass; assay: Test Example 5: herbicidal effect by foliage application, plastic box (Table 20, symbol K); assay type: in vivo, Italian ryegrass (Lolium multiflorum); settings: foliage application, AAH 320 g/ha, evaluated three weeks after application
Summary of the method: as §2

[15] = tested on: wild oat; assay: Test Example 5: herbicidal effect by foliage application, plastic box (Table 20, symbol I); assay type: in vivo, wild oat (Avena fatua); settings: foliage application, AAH 320 g/ha, evaluated three weeks after application
Summary of the method: as §2

[16] = tested on: redroot pigweed; assay: Test Example 4: herbicidal effect by soil treatment (Table 19, symbol N); assay type: in vivo, redroot pigweed (Amaranthus retroflexus); settings: amount of applied herbicide 320 g/ha
Summary of the method: as §3

[17] = tested on: chickweed; assay: Test Example 4: herbicidal effect by soil treatment (Table 19, symbol P); assay type: in vivo, common chickweed (Stellaria media); settings: amount of applied herbicide 320 g/ha
Summary of the method: as §3

[18] = tested on: barnyard grass; assay: Test Example 4: herbicidal effect by soil treatment (Table 19, symbol H); assay type: in vivo, barnyard grass (Echinochloa crus-galli); settings: amount of applied herbicide 320 g/ha
Summary of the method: as §3

[19] = tested on: blackgrass; assay: Test Example 4: herbicidal effect by soil treatment (Table 19, symbol J); assay type: in vivo, blackgrass (Alopecurus myosuroides); settings: amount of applied herbicide 320 g/ha
Summary of the method: as §3

[20] = tested on: redroot pigweed; assay: Test Example 5: herbicidal effect by foliage application, plastic box (Table 20, symbol N); assay type: in vivo, redroot pigweed (Amaranthus retroflexus); settings: foliage application, AAH 320 g/ha, evaluated three weeks after application
Summary of the method: as §2

[21] = tested on: wild oat; assay: Test Example 4: herbicidal effect by soil treatment (Table 19, symbol I); assay type: in vivo, wild oat (Avena fatua); settings: amount of applied herbicide 320 g/ha
Summary of the method: as §3

[22] = tested on: windgrass; assay: Test Example 4: herbicidal effect by soil treatment (Table 19, symbol L); assay type: in vivo, windgrass (Apera spica-venti); settings: amount of applied herbicide 320 g/ha
Summary of the method: as §3

[23] = tested on: late watergrass; assay: Test Example 1: herbicidal activity, application before weed generation under submerged conditions (Table 16, symbol A); assay type: in vivo, late watergrass (Echinochloa oryzicola)
Summary of the method: as §1

[24] = tested on: persian speedwell; assay: Test Example 4: herbicidal effect by soil treatment (Table 19, symbol R); assay type: in vivo, Persian speedwell (Veronica persica); settings: amount of applied herbicide 320 g/ha
Summary of the method: as §3

[25] = tested on: rice flat sedge; assay: Test Example 3: herbicidal effect by foliage application, Wagner pot (Table 18, symbol E); assay type: in vivo, rice flat sedge (Cyperus iria); settings: amount of applied herbicide 320 g/ha
Summary of the method: as §4

[26] = tested on: chickweed; assay: Test Example 5: herbicidal effect by foliage application, plastic box (Table 20, symbol P); assay type: in vivo, common chickweed (Stellaria media); settings: foliage application, AAH 320 g/ha, evaluated three weeks after application
Summary of the method: as §2

[27] = tested on: barnyard grass; assay: Test Example 5: herbicidal effect by foliage application, plastic box (Table 20, symbol H); assay type: in vivo, barnyard grass (Echinochloa crus-galli); settings: foliage application, AAH 320 g/ha, evaluated three weeks after application
Summary of the method: as §2

[28] = tested on: lambsquarters; assay: Test Example 4: herbicidal effect by soil treatment (Table 19, symbol O); assay type: in vivo, lambsquarters (Chenopodium album); settings: amount of applied herbicide 320 g/ha
Summary of the method: as §3

[29] = tested on: velvetleaf; assay: Test Example 5: herbicidal effect by foliage application, plastic box (Table 20, symbol M); assay type: in vivo, velvetleaf (Abutilon theophrasti); settings: foliage application, AAH 320 g/ha, evaluated three weeks after application
Summary of the method: as §2

[30] = tested on: Italian ryegrass; assay: Test Example 4: herbicidal effect by soil treatment (Table 19, symbol K); assay type: in vivo, Italian ryegrass (Lolium multiflorum); settings: amount of applied herbicide 320 g/ha
Summary of the method: as §3

[31] = amount of applied herbicide 320 g/ha

SMILES | G: green foxtail, herbicidal effect (criteria 0-5) [2] | F: southern crabgrass, herbicidal effect (criteria 0-5) [3] | O: lambsquarters, herbicidal effect (criteria 0-5) [4] | L: windgrass, herbicidal effect (criteria 0-5) [8] | herbicidal effect on H: barnyard grass [9] | R: persian speedwell, herbicidal effect (criteria 0-5) [10] | J: blackgrass, herbicidal effect (criteria 0-5) [12] | herbicidal effect on D: Chinese sprangletop [13] | K: Italian ryegrass, herbicidal effect (criteria 0-5) [14] | I: wild oat, herbicidal effect (criteria 0-5) [15] | N: redroot pigweed, herbicidal effect (criteria 0-5) [20] | herbicidal effect on E: rice flat sedge [25] | P: chickweed, herbicidal effect (criteria 0-5) [26] | H: barnyard grass, herbicidal effect (criteria 0-5) [27] | M: velvetleaf, herbicidal effect (criteria 0-5) [29] | also measured
Cc1nn(C)c(=O)c(-c2c(-c3ccc(F)c(F)c3)sc3ccc(F)cc23)c1O [2-344] | 5 (Herbicidal rate of 90% or more (almost completely withered)) | 5 (Herbicidal rate of 90% or more (almost completely withered)) | 4 (Herbicidal rate of 70% or more and less than 90%) | 5 (Herbicidal rate of 90% or more (almost completely withered)) | 5 (Herbicidal rate of 90% or more (almost completely withered)) | 5 (Herbicidal rate of 90% or more (almost completely withered)) | 2 (Herbicidal rate of 20% or more and less than 40%) | 4 (Herbicidal rate of 70% or more and less than 90%) | 5 (Herbicidal rate of 90% or more (almost completely withered)) | 3 (Herbicidal rate of 40% or more and less than 70%) | 5 (Herbicidal rate of 90% or more (almost completely withered)) | 5 (Herbicidal rate of 90% or more (almost completely withered)) | 5 (Herbicidal rate of 90% or more (almost completely withered)) | 5 (Herbicidal rate of 90% or more (almost completely withered)) | 5 (Herbicidal rate of 90% or more (almost completely withered)) | Herbicidal effect on B: Japanese bulrush (grade 0-5) ([1]; 320 g/ha applied herbicide): 2 (Herbicidal rate of 20% or more and less than 40%); herbicidal effect on M: velvetleaf [5]: 3 (Herbicidal rate of 40% or more and less than 70%); herbicidal effect on G: green foxtail [6]: 5 (Herbicidal rate of 90% or more (almost completely withered)); Herbicidal effect on C: oval-leafed pondweed (grade 0-5) ([7]; 320 g/ha applied herbicide): 0 (Herbicidal rate of 5% or less (almost no effect)); herbicidal effect on F: southern crabgrass [11]: 5 (Herbicidal rate of 90% or more (almost completely withered)); herbicidal effect on N: redroot pigweed [16]: 5 (Herbicidal rate of 90% or more (almost completely withered)); herbicidal effect on P: chickweed [17]: 4 (Herbicidal rate of 70% or more and less than 90%); herbicidal effect on H: barnyard grass [18]: 4 (Herbicidal rate of 70% or more and less than 90%); herbicidal effect on J: blackgrass [19]: 0 (Herbicidal rate of 5% or less (almost no effect)); herbicidal effect on I: wild oat [21]: 0 (Herbicidal rate of 5% or less (almost no effect)); herbicidal effect on L: windgrass [22]: 0 (Herbicidal rate of 5% or less (almost no effect)); Herbicidal effect on A: late watergrass (grade 0-5) ([23]; 320 g/ha applied herbicide): 0 (Herbicidal rate of 5% or less (almost no effect)); herbicidal effect on R: persian speedwell [24]: 5 (Herbicidal rate of 90% or more (almost completely withered)); herbicidal effect on O: lambsquarters [28]: 5 (Herbicidal rate of 90% or more (almost completely withered)); herbicidal effect on K: Italian ryegrass [30]: 5 (Herbicidal rate of 90% or more (almost completely withered))
CCCC(=O)Oc1c(C)nn(C)c(=O)c1-c1c(-c2cnccc2C(F)(F)F)sc2ccc(F)cc12 [2-388] | 3 (Herbicidal rate of 40% or more and less than 70%) | 1 (Herbicidal rate of 5% or more and less than 20%) | 4 (Herbicidal rate of 70% or more and less than 90%) | 4 (Herbicidal rate of 70% or more and less than 90%) | 5 (Herbicidal rate of 90% or more (almost completely withered)) | 5 (Herbicidal rate of 90% or more (almost completely withered)) | 1 (Herbicidal rate of 5% or more and less than 20%) | 3 (Herbicidal rate of 40% or more and less than 70%) | 3 (Herbicidal rate of 40% or more and less than 70%) | 3 (Herbicidal rate of 40% or more and less than 70%) | 4 (Herbicidal rate of 70% or more and less than 90%) | 3 (Herbicidal rate of 40% or more and less than 70%) | 5 (Herbicidal rate of 90% or more (almost completely withered)) | 4 (Herbicidal rate of 70% or more and less than 90%) | 5 (Herbicidal rate of 90% or more (almost completely withered)) | Herbicidal effect, B: Japanese bulrush [1, 31]: 0 (Herbicidal rate of 5% or less (almost no effect)); herbicidal effect, M: velvetleaf [5]: 0 (Herbicidal rate of 5% or less (almost no effect)); herbicidal effect, G: green foxtail [6]: 0 (Herbicidal rate of 5% or less (almost no effect)); Herbicidal effect, C: oval-leafed pondweed [7, 31]: 0 (Herbicidal rate of 5% or less (almost no effect)); herbicidal effect, F: southern crabgrass [11]: 0 (Herbicidal rate of 5% or less (almost no effect)); herbicidal effect, N: redroot pigweed [16]: 1 (Herbicidal rate of 5% or more and less than 20%); herbicidal effect, P: chickweed [17]: 5 (Herbicidal rate of 90% or more (almost completely withered)); herbicidal effect, H: barnyard grass [18]: 3 (Herbicidal rate of 40% or more and less than 70%); herbicidal effect, J: blackgrass [19]: 0 (Herbicidal rate of 5% or less (almost no effect)); herbicidal effect, I: wild oat [21]: 0 (Herbicidal rate of 5% or less (almost no effect)); herbicidal effect, L: windgrass [22]: 0 (Herbicidal rate of 5% or less (almost no effect)); Herbicidal effect, A: late watergrass [23, 31]: 5 (Herbicidal rate of 90% or more (almost completely withered)); herbicidal effect, R: persian speedwell [24]: 5 (Herbicidal rate of 90% or more (almost completely withered)); herbicidal effect, O: lambsquarters [28]: 2 (Herbicidal rate of 20% or more and less than 40%); herbicidal effect, K: Italian ryegrass [30]: 0 (Herbicidal rate of 5% or less (almost no effect))
